These results are taken from US10323012B2 (priority 2012, dated 2019).

Where two headings read alike, the source gives them in different places.

By EC50 is commonly meant the concentration needed to bring the measured effect to its halfway point.

Data set [1] has as its system HIV/VSV-G virions. The settings on record: read-out: Anti-HIV Activity (EC50).
The nature of data set [2]: Toxicity of 4α-(N-phenyl)miliusate in mice. Type of data set: in vivo, BALB/c nude mice. From the text:
All animal studies are approved and performed according to Animal Care and Use Guidelines of the Animal Ethics Committee at Hong Kong Baptist University and performed following Animal Care and Use guidelines set by NIH (National Institute of Health, USA). BALB/c nude mice, SPF class, male or female, 7-8 weeks old (average body weight 22 g), are purchased from Charles River Laboratories. Before the experiment, the mice are kept for one week of acclimatization to SPF class laboratory conditions. […] Every other day injections at i.p. sites are scheduled for 21 days. Weights of mice are measured twice a week until the end of the experiment.

Data set [3] deals with HIV/VSV-G virions. Put plainly: microbe, parasite or virus in culture. The settings on record: Human immunodeficiency virus 1, A549, in Homo sapiens, 48 h, read-out: Anti-HIV Activity (EC50).
Data set [4] concerns HIV/VSV-G virions. Put plainly: in vitro. The settings on record: human.
Data set [5] has as its system HIV/HA virions (H5N1 HA and NA). The settings on record: human.
The test system is the same in data set [6]. Put plainly: microbe, parasite or virus in culture. The settings on record: Human immunodeficiency virus 1, H5N1, A549, in Homo sapiens, 48 h, read-out: Anti-H5N1 Activity (EC50).
For data set [7] the test system is unchanged. Put plainly: in vitro. The settings on record: human, Selective Index (CC50/IC50), anti-H5N1.
The mark [8] stands for this setting: 20 and 40 mg/kg i.p., every other day for 21 days, 10 mice/group.

As to 4α-(N-Phenyl)miliusate, the EC50 with HIV/VSV-G virions [1] worked out at 2.7 µM. For the same molecule, in data set [2] (setting [8]), the Health of mice result is “all mice remained healthy” and the “Weight loss of mice” value is given as “no weight loss”. Besides, the Toxicity in mice entry in data set [2] (doses of 40 mg/kg) is recorded as “no toxicity”.

As for 8′,10′-Dihydroxy-miliusate, the EC50 in the data set with HIV/VSV-G virions [1] stood at 14.4 µM.

With 10′-Hydroxy-8′-oxo-miliusate, in the data set on HIV/VSV-G virions [1], the EC50 stood at 4.97 µM.

For the molecule `CC(=O)O[C@@H]1CCC(=O)C2(CC(=O)O[C@@H]2/C=C(\C)CCC=C(C)C)C1` (some centres unmarked) [3,4-Dihydro-miliusate], the EC50 in the data set with HIV/VSV-G virions [3] amounted to 67 µM. Also, the selectivity ratio in the data set with HIV/VSV-G virions [4] turned out to be 1.

For `CO[C@@H]1CC(=O)C2(CC(=O)O[C@@H]2/C=C(\C)CCC=C(C)C)C[C@@H]1O` (some centres unmarked) [Miliusane I], in data set [5], the “Selective Index (CC50/IC50), anti-H5N1” value stood at 10. The EC50 in data set [6] turned out to be 0.71 µM. Further, in data set [7], the selectivity ratio came out at 9.5.
